Data: EP2327700A1, “Dialkyl triazinamines and use thereof for combating undesired plant growth” (Bayer CropScience AG, priority 2009, dated 2011)
One block for each compound: values may come before it.

Assays:
[1] = logp (HCOOH) determination; assay type: physicochemical
Veronica persica [2] = assay: Herbicidal action pre-emergence (greenhouse pot test); assay type: in vivo; conditions: 320 g/ha, visual rating after 3 weeks vs untreated controls
Excerpt: (§1) • 1. Herbizide Wirkung bzw. Kulturpflanzenverträglichkeit im Vorauflauf Samen von mono- bzw. dikotylen Unkraut- bzw. Kulturpflanzen werden in Holzfasertöpfen in sandiger Lehmerde ausgelegt und mit Erde abgedeckt. Die in Form von benetzbaren Pulvern (WP) oder als Emulsionskonzentrate (EC) formulierten erfindungsgemäßen Verbindungen werden dann als wäßrige Suspension bzw. Emulsion mit einer Wasseraufwandmenge von umgerechnet 600 bis 800 I/ha unter Zusatz von 0,2% Netzmittel auf die Oberfläche der Abdeckerde appliziert. Nach der Behandlung werden die Töpfe im Gewächshaus aufgestellt und unter guten Wachstumsbedingungen für die Testpflanzen gehalten. Die visuelle Bonitur der Schäden an den Versuchspflanzen erfolgt nach einer Versuchszeit von 3 Wochen im Vergleich zu unbehandelten Kontrollen (herbizide Wirkung in Prozent (%): 100% Wirkung = Pflanzen sind abgestorben, 0 % Wirkung = wie Kontrollpflanzen). Dabei zeigen beispielsweise die Verbindungen Nr. I-16, I-17, I-48, I-50, I-51, I-52, I-54 und I-63 bei einer Aufwandmenge von 320 g/ha jeweils eine mindestens 80%-ige Wirkung gegen Lolium multiflorum, Setaria viridis und Stellaria media. Die Verbindungen Nr. I-64, I-65, I-66, I-68, I-69 und I-70 zeigen bei einer Aufwandmenge von 320 g/ha jeweils eine mindestens 80%-ige Wirkung gegen Amaranthus retroflexus, Pharbitis purpureumund Veronica persica. • 2. Herbizide Wirkung bzw. Kulturpflanzenverträglichkeit im Nachauflauf Samen von mono- bzw. dikotylen Unkraut- bzw. Kulturpflanzen werden in Holzfasertöpfen in sandigem Lehmboden ausgelegt, mit Erde abgedeckt und im Gewächshaus unter guten Wachstumsbedingungen angezogen. 2 bis 3 Wochen nach der Aussaat werden die Versuchspflanzen im Einblattstadium behandelt. Die in Form von benetzbaren Pulvern (WP) oder als Emulsionskonzentrate (EC) formulierten erfindungsgemäßen Verbindungen werden dann als wäßrige Suspension bzw. Emulsion mit einer Wasseraufwandmenge von umgerechnet 600 bis 800 I/ha unter Zusatz von 0,2% Netzmittel auf die grünen Pflanzenteile gesprüht. Nach ca. 3 Wochen Standzeit der Versuchspflanzen im Gewächshaus unter optimalen Wachstumsbedingungen wird die Wirkung der Präparate visuell im Vergleich zu unbehandelten Kontrollen bonitiert (herbizide Wirkung in Prozent (%): 100% Wirkung = Pflanzen sind abgestorben, 0 % Wirkung = wie Kontrollpflanzen). Dabei zeigen beispielsweise die Verbindungen Nr. I-50, I-52, I-54 und I-64 bei einer Aufwandmenge von 320 g/ha jeweils eine mindestens 80%-ige Wirkung gegen Alopecurus myosuroides, Setaria viridis und Stellaria media. Die Verbindungen Nr. I-51, I-63, I-66, I-69 und I-70 zeigen bei einer Aufwandmenge von 320 g/ha jeweils eine mindestens 80%-ige Wirkung gegen Alopecurus myosuroides, Veronica persica und Viola tricolor.

Pharbitis purpureum = assay: as above; assay type: in vivo; conditions: 320 g/ha, visual rating after 3 weeks vs untreated controls
Excerpt: as §1

Amaranthus retroflexus = assay: as above; assay type: in vivo; conditions: 320 g/ha, visual rating after 3 weeks vs untreated controls
Excerpt: as §1

Veronica persica [3] = assay: Herbicidal action post-emergence (greenhouse pot test); assay type: in vivo; conditions: 320 g/ha, visual rating after ca. 3 weeks vs untreated controls
Excerpt: as §1

Viola tricolor = assay: as above; assay type: in vivo; conditions: 320 g/ha, visual rating after ca. 3 weeks vs untreated controls
Excerpt: as §1

Alopecurus myosuroides = assay: as above; assay type: in vivo; conditions: 320 g/ha, visual rating after ca. 3 weeks vs untreated controls
Excerpt: as §1

Stellaria media [4] = assay: as above; assay type: in vivo; conditions: 320 g/ha, visual rating after ca. 3 weeks vs untreated controls
Excerpt: as §1

Setaria viridis [5] = assay: as above; assay type: in vivo; conditions: 320 g/ha, visual rating after ca. 3 weeks vs untreated controls
Excerpt: as §1

Lolium multiflorum = assay: Herbicidal action pre-emergence (greenhouse pot test); assay type: in vivo; conditions: 320 g/ha, visual rating after 3 weeks vs untreated controls
Excerpt: as §1

Stellaria media [6] = assay: as above; assay type: in vivo; conditions: 320 g/ha, visual rating after 3 weeks vs untreated controls
Excerpt: as §1

Setaria viridis [7] = assay: as above; assay type: in vivo; conditions: 320 g/ha, visual rating after 3 weeks vs untreated controls
Excerpt: as §1

chromatographic logP ([1]; hcooh): 3.58
SMILES: Cc1nc(NC2c3ccc(Cl)cc3CC2C)nc(C(F)F)n1 (stereo not drawn) [I-137]

chromatographic logP ([1]; hcooh): 3.55
SMILES: Cc1nc(N[C@H]2c3cc(Br)ccc3C[C@@H]2C)nc(C(F)F)n1 [I-235, N-[trans-6-Brom-2-methyl-2,3-dihydro-1H-inden-1-yl]-4-(difluoromethyl)-6-methyl-1,3,5-triazin-2-amin]

chromatographic logP ([1]; hcooh): 3.79
SMILES: Cc1nc(NC2CCc3ccc(C(C)C)cc32)nc(C(F)F)n1 (stereo not drawn) [I-100]

chromatographic logP ([1]; hcooh): 4.13
SMILES: Cc1ccc2c(c1)[C@H](Nc1nc(C)nc(C(Cl)Cl)n1)[C@@H](C)C2 [I-69]
herbizide Wirkung in Prozent (%) (Veronica persica [2]): ≥ 80%
herbizide Wirkung in Prozent (%) (Pharbitis purpureum): ≥ 80%
herbizide Wirkung in Prozent (%) (Amaranthus retroflexus): ≥ 80%
herbizide Wirkung in Prozent (%) (Veronica persica [3]): ≥ 80%
herbizide Wirkung in Prozent (%) (Viola tricolor): ≥ 80%
herbizide Wirkung in Prozent (%) (Alopecurus myosuroides): ≥ 80%

chromatographic logP ([1]; hcooh): 3.44
SMILES: Cc1ccc2c(c1)[C@H](Nc1nc(C)nc(C(F)F)n1)[C@@H](C)C2 [I-64]
herbizide Wirkung in Prozent (%) (Veronica persica [2]): ≥ 80%
herbizide Wirkung in Prozent (%) (Pharbitis purpureum): ≥ 80%
herbizide Wirkung in Prozent (%) (Amaranthus retroflexus): ≥ 80%
herbizide Wirkung in Prozent (%) (Stellaria media [4]): ≥ 80%
herbizide Wirkung in Prozent (%) (Setaria viridis [5]): ≥ 80%
herbizide Wirkung in Prozent (%) (Alopecurus myosuroides): ≥ 80%

SMILES: Cc1cc(C)c2c(c1)C(Nc1nc(C)nc(C)n1)CCC2 (stereo not drawn) [I-17, N2-(5,7-Dimethyl-1,2,3,4-tetrahydro-1-naphthalenyl)-4,6-dimethyl-1,3,5-triazin-2-amine]
herbizide Wirkung in Prozent (%) (Lolium multiflorum): ≥ 80%
herbizide Wirkung in Prozent (%) (Stellaria media [6]): ≥ 80%
herbizide Wirkung in Prozent (%) (Setaria viridis [7]): ≥ 80%

chromatographic logP ([1]; HCOOH (formic acid)): 1.36
SMILES: Cc1nc(C)nc(NC2CCc3c(C)cccc32)n1 (stereo not drawn) [I-168, 4,6-Dimethyl-N-(4-methyl-2,3-dihydro-1H-inden-1-yl)-1,3,5-triazin-2-amine]

chromatographic logP ([1]; hcooh): 3.41
SMILES: Cc1nc(NC2CCOc3ccc(C(C)C)cc32)nc(C(F)F)n1 (stereo not drawn) [I-125]

chromatographic logP ([1]; HCOOH (formic acid)): 2.16
SMILES: COCc1nc(C)nc(N[C@H]2c3cc(C)ccc3C[C@@H]2C)n1 [I-54, N-[(1R,2S)-2,6-Dimethyl-2,3-dihydro-1H-inden-1-yl]-4-(methoxymethyl)-6-methyl-1,3,5-triazin-2-amin]
herbizide Wirkung in Prozent (%) (Lolium multiflorum): ≥ 80%
herbizide Wirkung in Prozent (%) (Stellaria media [6]): ≥ 80%
herbizide Wirkung in Prozent (%) (Setaria viridis [7]): ≥ 80%
herbizide Wirkung in Prozent (%) (Stellaria media [4]): ≥ 80%
herbizide Wirkung in Prozent (%) (Setaria viridis [5]): ≥ 80%
herbizide Wirkung in Prozent (%) (Alopecurus myosuroides): ≥ 80%

chromatographic logP ([1]; hcooh): 3.9
SMILES: Cc1nc(N[C@@H]2CCCc3ccccc32)nc(C(F)(F)Cl)n1 [I-67]

chromatographic logP ([1]; hcooh): 1.59
SMILES: Cc1ccc2c(c1)[C@H](Nc1nc(C)nc(C)n1)[C@@H](C)C2 [I-63]
herbizide Wirkung in Prozent (%) (Lolium multiflorum): ≥ 80%
herbizide Wirkung in Prozent (%) (Stellaria media [6]): ≥ 80%
herbizide Wirkung in Prozent (%) (Setaria viridis [7]): ≥ 80%
herbizide Wirkung in Prozent (%) (Veronica persica [3]): ≥ 80%
herbizide Wirkung in Prozent (%) (Viola tricolor): ≥ 80%
herbizide Wirkung in Prozent (%) (Alopecurus myosuroides): ≥ 80%

chromatographic logP ([1]; hcooh): 2.16
SMILES: Cc1ccc2c(c1)[C@H](Nc1nc(C)nc(C(C)C)n1)[C@@H](C)C2 [I-50]
herbizide Wirkung in Prozent (%) (Lolium multiflorum): ≥ 80%
herbizide Wirkung in Prozent (%) (Stellaria media [6]): ≥ 80%
herbizide Wirkung in Prozent (%) (Setaria viridis [7]): ≥ 80%
herbizide Wirkung in Prozent (%) (Stellaria media [4]): ≥ 80%
herbizide Wirkung in Prozent (%) (Setaria viridis [5]): ≥ 80%
herbizide Wirkung in Prozent (%) (Alopecurus myosuroides): ≥ 80%

chromatographic logP ([1]; HCOOH (formic acid)): 1.35
SMILES: Cc1nc(C)nc(N[C@@H]2CCCc3ccccc32)n1 [I-78, 4,6-Dimethyl-N-[(1R)-1,2,3,4-tetrahydronaphthalen-1-yl]-1,3,5-triazin-2-amine]

chromatographic logP ([1]; hcooh): 3.34
SMILES: CCOc1ccc2c(c1)C(Nc1nc(C)nc(C(F)F)n1)CCC2 (stereo not drawn) [I-122]

chromatographic logP ([1]; hcooh): 1.48
SMILES: CCc1nc(C)nc(N[C@@H]2CCCc3ccccc32)n1 [I-53]

chromatographic logP ([1]; HCOOH (formic acid)): 4.85
SMILES: Cc1ccc2c(c1)[C@H](Nc1nc(C)nc(C(Cl)(Cl)Cl)n1)[C@@H](C)C2 [I-70, N-[(1R,2S)-2,6-Dimethyl-2,3-dihydro-1H-inden-1-yl]-4-methyl-6-(trichloromethyl)-1,3,5-triazin-2-amin]
herbizide Wirkung in Prozent (%) (Veronica persica [2]): ≥ 80%
herbizide Wirkung in Prozent (%) (Pharbitis purpureum): ≥ 80%
herbizide Wirkung in Prozent (%) (Amaranthus retroflexus): ≥ 80%
herbizide Wirkung in Prozent (%) (Veronica persica [3]): ≥ 80%
herbizide Wirkung in Prozent (%) (Viola tricolor): ≥ 80%
herbizide Wirkung in Prozent (%) (Alopecurus myosuroides): ≥ 80%

chromatographic logP ([1]; hcooh): 3.3
SMILES: Cc1ccc2c(c1)OC(C)(C)CC2Nc1nc(C)nc(C(F)F)n1 (stereo not drawn) [I-130]

chromatographic logP ([1]; hcooh): 2.69
SMILES: Cc1nc(N[C@@H]2CCc3ccccc32)nc(C(F)F)n1 [I-91]

chromatographic logP ([1]; hcooh): 4.36
SMILES: Cc1ccc2c(c1)[C@H](Nc1nc(C)nc(C(F)(F)Cl)n1)[C@@H](C)C2 [I-66]
herbizide Wirkung in Prozent (%) (Veronica persica [2]): ≥ 80%
herbizide Wirkung in Prozent (%) (Pharbitis purpureum): ≥ 80%
herbizide Wirkung in Prozent (%) (Amaranthus retroflexus): ≥ 80%
herbizide Wirkung in Prozent (%) (Veronica persica [3]): ≥ 80%
herbizide Wirkung in Prozent (%) (Viola tricolor): ≥ 80%
herbizide Wirkung in Prozent (%) (Alopecurus myosuroides): ≥ 80%

chromatographic logP ([1]; hcooh): 4.32
SMILES: Cc1nc(NC2CC(C)(C)Oc3cc(Cl)c(F)cc32)nc(C(F)F)n1 (stereo not drawn) [I-95]

chromatographic logP ([1]; hcooh): 3.71
SMILES: CCc1ccc2c(c1)C(Nc1nc(C)nc(C(F)(F)F)n1)CCO2 (stereo not drawn) [I-135]

chromatographic logP ([1]; hcooh): 3.11
SMILES: Cc1nc(N[C@@H]2CCOc3ccccc32)nc(C(F)(F)Cl)n1 [I-84]

chromatographic logP ([1]; hcooh): 2.93
SMILES: COc1ccc2c(c1)C(Nc1nc(C)nc(C(F)(F)F)n1)CCO2 (stereo not drawn) [I-237]

chromatographic logP ([1]; hcooh): 4.21
SMILES: Cc1ccc2c(c1)[C@H](Nc1nc(C)nc(C(F)(F)F)n1)[C@@H](C)C2 [I-87]

chromatographic logP ([1]; hcooh): 3.1
SMILES: CCc1ccc2c(c1)C(Nc1nc(C)nc(C(F)F)n1)CCO2 (stereo not drawn) [I-134]

chromatographic logP ([1]; hcooh): 1.85
SMILES: CCc1nc(C)nc(N[C@H]2c3cc(C)ccc3C[C@@H]2C)n1 [I-52]
herbizide Wirkung in Prozent (%) (Lolium multiflorum): ≥ 80%
herbizide Wirkung in Prozent (%) (Stellaria media [6]): ≥ 80%
herbizide Wirkung in Prozent (%) (Setaria viridis [7]): ≥ 80%
herbizide Wirkung in Prozent (%) (Stellaria media [4]): ≥ 80%
herbizide Wirkung in Prozent (%) (Setaria viridis [5]): ≥ 80%
herbizide Wirkung in Prozent (%) (Alopecurus myosuroides): ≥ 80%

chromatographic logP ([1]; hcooh): 1.51
SMILES: CCc1ccc2c(c1)C(Nc1nc(C)nc(C)n1)CCO2 (stereo not drawn) [I-238]

chromatographic logP ([1]; hcooh): 4.4
SMILES: Cc1nc(N[C@@H]2CCCc3ccccc32)nc(C(Cl)(Cl)Cl)n1 [I-71]

chromatographic logP ([1]; hcooh): 3.8
SMILES: Cc1nc(N[C@H]2c3cc(Br)ccc3C[C@@H]2C)nc(C(F)(F)Cl)n1 [I-81]

chromatographic logP ([1]; hcooh): 3.56
SMILES: Cc1ccc2c(c1)[C@H](Nc1nc(C)nc(C(C)(C)C)n1)[C@@H](C)C2 [I-51]
herbizide Wirkung in Prozent (%) (Lolium multiflorum): ≥ 80%
herbizide Wirkung in Prozent (%) (Stellaria media [6]): ≥ 80%
herbizide Wirkung in Prozent (%) (Setaria viridis [7]): ≥ 80%
herbizide Wirkung in Prozent (%) (Veronica persica [3]): ≥ 80%
herbizide Wirkung in Prozent (%) (Viola tricolor): ≥ 80%
herbizide Wirkung in Prozent (%) (Alopecurus myosuroides): ≥ 80%

chromatographic logP ([1]; hcooh): 4.32
SMILES: Cc1nc(NC2CC(C)(C)Oc3cc(Cl)c(F)cc32)nc(C(F)(F)Cl)n1 (stereo not drawn) [I-82]

chromatographic logP ([1]; hcooh): 2.9
SMILES: COc1ccc2c(c1)CCCC2Nc1nc(C)nc(C(F)F)n1 (stereo not drawn) [I-159]

chromatographic logP ([1]; hcooh): 3.98
SMILES: Cc1nc(NC2CCc3c(C)cccc32)nc(C(F)(F)Cl)n1 (stereo not drawn) [I-147]

chromatographic logP ([1]; hcooh): 3.06
SMILES: Cc1nc(N[C@@H]2CCOc3c(F)cccc32)nc(C(F)(F)Cl)n1 [I-83]
